Reference: PubChem BioAssay AID2423 (Broad Institute, 2010)
Values joined by “and” are separate entries in the source; they are usually repeats but may differ in a detail not shown here. Equal values may be shown once. Records with an inconclusive call do not appear. Active and inactive are the calls of the source. The rule behind the calls is not given here.

system: C. albicans CaCi-8 + fluconazole, Alamar Blue growth, 48 h; experiment: resistant C. albicans growth inhibition with fluconazole, dose response, CaCi-8 strain, Alamar Blue fluorescence (AID 2423)

Compound | EC50
COc1ccc(C(=O)NNC(=S)NC(=O)c2ccc(Cl)cc2)cc1 | 928 nM
Cc1cc(/C=N/NC(N)=S)c(C)n1-c1cccc(Cl)c1 | 1650 nM
CCOc1cc(/C=C(\C#N)C(=O)NCC2CCCO2)ccc1OCC(N)=O (centres undefined) | > 16000 nM (inactive)
Cc1[nH]n(C(N)=S)c(=O)c1N=Nc1ccc(S(=O)(=O)N2CCCCCC2)cc1 | 9480 nM
Cc1nc2c(=O)oc3ccccc3c2n1-c1ccccc1 | 2430 nM
COc1cccc(/C=N/Nc2nccnc2Cl)c1O | 1800 nM
Cc1ccc(Nc2nc(Cl)nc(NC(C)(C)C)n2)cc1 | 2620 nM
CCCOc1cccc(C(=O)N/N=C/c2coc3ccccc3c2=O)c1 | > 15000 nM (inactive)
Oc1ccc(CN2CCC(Cc3ccccc3)CC2)c2cccnc12 | 1340 nM
COc1cc2c(O)c3c(c(-c4ccc5c(c4)OCO5)c2cc1OC)C(=O)OC3 | 2210 nM
Brc1ccc(-c2nnc3sc(CN4CCN(c5ccccc5)CC4)cn23)cc1 | 288 nM
CC(=O)Nc1cccc(-c2csc(Nc3ccc(C)cn3)n2)c1 | 2260 nM
N#C/C(=C\c1ccc(O)c(O)c1)C(=O)Nc1cccc2ncccc12 | > 15000 nM (inactive)
O=C(N/N=C/c1ccc[nH]1)c1cc2ccccc2cc1O | 3940 nM
CCCCOP(=O)(c1ccc(N(C)C)cc1)C(O)c1ccccc1F (centres undefined) | 4660 nM
CCCc1ccc(OCC(=O)Nc2cc(S(=O)(=O)CC)ccc2O)cc1 | 439 nM
Cc1cc(NC(=O)c2c(F)cccc2Cl)n(-c2nc3ccccc3[nH]2)n1 | 7390 nM
O=C(NNC(=S)NC1CCCCC1)c1ccccc1Br | > 16000 nM (inactive)
O=C(CN1C(=O)/C(=C/c2ccccc2)SC1=S)NNC(=O)c1ccccc1O | > 16000 nM (inactive)
O=c1c2cc(Br)ccc2nc(-c2ccccc2)n1O | 2080 nM
COc1ccnc(Oc2cccc(C(F)(F)F)c2)c1C(=O)N/C=N/OCc1ccccc1F | > 15000 nM (inactive)
O=C(N/N=C(\c1ccccc1)c1ccccn1)c1cccc([N+](=O)[O-])c1 | 5310 nM
CCCCOc1ccc(C(=O)NNC(=S)NC(=O)CC)cc1 | 858 nM
CCC(=O)NC(c1cccs1)c1cc([N+](=O)[O-])c2cccnc2c1O (centres undefined) | 633 nM
O=C(c1cc2ccccc2cc1O)N1CCN(c2ccccc2O)CC1 | 209 nM
COc1ccc(C(=O)NNC(=S)NC(=O)c2cccc([N+](=O)[O-])c2)cc1 | 1800 nM
CC1CCC(C(C)C)C(OC(=O)Cn2c(-c3ccc(Br)cc3)[n+](C)c3ccccc32)C1 (centres undefined) | 534 nM and 752 nM

Compound | EC50
CCOc1ccc(NC(=O)NNC(=O)c2ccc3ccccc3c2O)cc1 | 2460 nM
CCc1nnc(NC(=O)CSc2nnc(CNc3cccc(C)c3)n2-c2ccccc2)s1 | > 15000 nM (inactive)
CC(=O)N(Cc1ccc(F)cc1)C1=C(NCc2ccccc2)C(=O)c2ccccc2C1=O | 596 nM
O=C(CN1CCN(S(=O)(=O)c2ccccc2)CC1)Nc1ccc2c(c1)CCC2 | 10500 nM
CCCCn1c(CN2CCN(C(=O)OCC)CC2)nc2c1c(=O)n(C)c(=O)n2C | > 15000 nM (inactive)
CCc1cc(C(=O)NNC(=S)Nc2cc(C)ccc2C)cs1 | 422 nM
Cc1c(CCOC(=O)C23CC4(C)CC(C)(CC(C)(C4)C2)C3)sc[n+]1CC(=O)c1ccccc1 | > 15000 nM (inactive)
OCCCNc1cc(-c2ccnc(Nc3cccc(Cl)c3)n2)ccn1 | 939 nM
COc1cccc(CN(C(=O)c2cc3ccccc3oc2=O)C2CC2)c1 | > 15000 nM (inactive)
Cc1cccc(NC(=O)NNC(=O)c2cc3ccccc3cc2O)c1C | > 15000 nM (inactive)
O=C(Nc1cccc(Cl)c1)Nc1nccs1 | 146 nM
Nc1nc(N)c2cc(Sc3ccc4ccccc4c3)ccc2n1 | 1180 nM
BrC(=C\c1ccccc1)/C=N/n1cnnc1 | 1570 nM
NC[C@@H]1O[C@H](C23CC4CC(CC(C4)C2)C3)Cc2c1ccc(O)c2O | 3360 nM
Cn1c(=O)c(C(=O)NCCc2ccccc2)c(O)c2ccccc21 | 13000 nM
Cc1ccnc(Sc2ccc([N+](=O)[O-])cc2[N+](=O)[O-])n1 | 964 nM
CC(OC(=O)c1oc2ccccc2c1COc1ccccc1)C(N)=O (centres undefined) | > 16000 nM (inactive)
CN(C/C=C/C#CC(C)(C)C)Cc1cccc2ccccc12 | 2590 nM
Cc1ccc(SCCC(=O)N/N=C/c2ccccc2O)cc1 | 14000 nM
COc1cc(C2C(C#N)=C(N)N(c3ccc(F)cc3)C3=C2S(=O)(=O)CC3)ccc1O (centres undefined) | > 16000 nM (inactive)
COC(=O)c1cc(C)sc1NC(=O)c1cccnc1 | 5890 nM
Nc1ncnc2c1ncn2[C@@H]1O[C@H](CO)C[C@H]1O | > 15000 nM (inactive)
Cc1n[nH]c(=S)n(NC(=O)CC(=O)Nn2c(=S)[nH]nc(C)c2=O)c1=O | < 120 nM
O=C(Oc1cc2oc(=O)c3c(c2cc1Cl)CCCC3)c1cccs1 | 653 nM
O=C(NNC(=O)c1cc(-c2ccncc2)nc2ccccc12)c1ccccc1O | 2290 nM
CCOC(=O)Cc1csc(NC(=O)CSc2nnc(-c3ccc(NS(=O)(=O)CC)cc3)o2)n1 | 150 nM
Cc1onc(C(=O)Nc2sc3c(c2C#N)CCCC3)c1[N+](=O)[O-] | 989 nM
